Test results published in patent US9730874B2, “Nitrone compounds and their use in personal care” (Dow Global Technologies LLC, priority 2014, dated 2017).

Test: Oxygen Radical Absorbance Capacity (ORAC) antioxidant potential
Assay type: biochemical
Details: calculated from ORAC values (AUC minus blank) vs Trolox; test concentration 100 micromolar
Description: Antioxidant potential is evaluated using the Oxygen Radical Absorbance Capacity (ORAC) protocol. ORAC is a chemical in-vitro method based on the hydrogen atom transfer (HAT) mechanism (see N. Re et al., Free Radical Biology & Medicine, 26 (9/10), 1231 (1997)). ORAC measures antioxidant inhibition of peroxyl radical induced oxidations and thus reflects classical radical chain breaking antioxidant activity by H atom transfer. In this assay, the peroxyl radical reacts with a fluorescent probe to form a non-fluorescent product. This is quantitated using a fluorescence measurement. Antioxidant capacity is determined by decreased rate and amount of product formed over time. This assay depends upon the free radical damage to the fluorescent probe resulting in the change in its fluorescence intensity. The change of fluorescence intensity is an indicator of the degree of free radical damage. In the presence of an antioxidant, the inhibition of free radical damage is reflected in higher fluorescence intensity and can be measured as antioxidant capacity against the free radicals. The uniqueness of ORAC assay is that the reaction is driven to completion. This allows calculation of the area under the curve (AUC) and gives an absolute quantitation of antioxidancy as opposed to relative measurements in many other assays.
As noted, the longer it takes to observe a decrease in fluorescence, the higher the antioxidant (AO) potential. From the AUC for a given antioxidant, the AUC for blank is subtracted to give its ORAC value. The concentration of AO needed to give the same AUC values as Trolox is calculated and used to represent the Trolox equivalent AO Capacity (TEAC). Trolox is ((±)-6-Hydroxy-2,5,7,8-tetramethylchromane-2-carboxylic acid, CAS #53188-07-1), and is used as an internal control.
The ORAC test is conducted in the stilbene-pendant nitrone compounds of Table 1 above (inventive compounds) as well as to Vitamin C, Vitamin E, and the following comparative compounds:
The inventive stilbene-pendant nitrones in the ORAC test solutions were at a concentration of 100 micromolar, while the concentrations of Trolox, Vitamin C, Vitamin E, BHT, PBN+BHT, and VAL-IPHA were at 100 micromolar. The TEAC values calculated from the ORAC values are listed the Table 3.

For `CC(C)(C)/[N+]([O-])=C/c1ccccc1` [PBN, 2-Phenyl-N-tert-butylnitrone, reference compound], the “TEAC (Trolox equivalent AO Capacity)” value was “not very high”.

Going from `COc1cc(/C=C/c2ccc(O)c(/C=[N+](/[O-])Cc3ccc(O)c(O)c3)c2)ccc1O` [Sald-34-DHBzHA, N-(2-Hydroxy-5-(4-hydroxy-3-methoxystyryl)benzylidene)-1-(3,4-dihydroxyphenyl)methanamine oxide] to Vitamin E [reference compound], the “TEAC (Trolox equivalent AO Capacity)” value falls from 7.16 to 0.13.

Compared with `COc1cc(/C=C/c2ccc(O)c(/C=[N+](/[O-])Cc3ccc(O)cc3)c2)ccc1O` [Sald-pHBzHA, N-(2-Hydroxy-5-(4-hydroxy-3-methoxystyryl)benzylidene)-1-hydroxyphenylmethanamine oxide], `COc1cc(/C=C/c2ccc(O)c(/C=[N+](/[O-])Cc3ccc(O)cc3O)c2)ccc1O` [Sald-24DHBzHA, N-(2-Hydroxy-5-(4-hydroxy-3-methoxystyryl)benzylidene)-1-(2,4-dihydroxyphenyl)methanamine oxide] is lower in “TEAC (Trolox equivalent AO Capacity)” value: 9.02 for the first, 7.31 for the second.

Going from `O=C1O[C@H]([C@@H](O)CO)C(O)=C1O` [Vitamin C, reference compound] to `COc1cc(/C=C/c2ccc(O)c(/C=[N+](/[O-])Cc3ccccc3)c2)ccc1O` [Sald-BzHA, N-(2-Hydroxy-5-(4-hydroxy-3-methoxystyryl)benzylidene)-1-phenylmethanamine oxide], the “TEAC (Trolox equivalent AO Capacity)” value rises from 0.76 to 8.33.
